Converted amounts (≈) assume the structure as drawn. Where two headings read alike, the source gives them in different places.
Assays:
[1] = test system: Plasmodium falciparum chloroquine resistant (W2); assay: Antimalarial test, tritiated hypoxanthine incorporation, chloroquine resistant clone W2; format: cell-based; details: read-out: 50% inhibitory concentration followed by uncertainty about the value expressed in percentage
Description: (§1) Screenings of the compound according to the present invention (1f, 1h, 1i) and their isomers (1a, 1c, 1d)on strains of Plasmodium falciparum sensitive (3D7) and chloroquine resistant (W2) were realized.
(§2) The Clones of W2 and 3D7 were grown. […] Melfloquine (MQ) at the same concentrations and chloroquine (CQ) at the concentrations adapted to each clone were used as the Controls. 8 negative controls were distributed on each plate.
(§3) Then, the molecules to be tested were diluted extemporaneously in the above preparation of the plates. The growth medium was deposited after drying plates. The study was initiated when the growth medium was at the ring stage and then stopped after 1 parasitic cycle (45h).
(§4) The activity was calculated by using the Pk-Fit software on all the experimental points obtained for each molecule (except the highest concentration). The results shown in table 5 are expressed in nM and correspond to calculate a 50% inhibitory concentration followed by un certainty about the value expressed in percentage. Table 5. The biological effect of the compounds on Plasmodium falciparum

[2] = test system: Plasmodium falciparum sensitive (3D7); assay: Antimalarial test, tritiated hypoxanthine incorporation, sensitive clone 3D7; format: cell-based; details: read-out: 50% inhibitory concentration followed by uncertainty about the value expressed in percentage
Description: as §1, §2, §3, §4

E. coli DSM 1103 = assay: Antibacterial test, MIC by CLSI broth dilution; format: cell-based; details: 18 to 24 h at 37°C, Mueller-Hinton
Description: (§5) The minimum inhibitory concentrations (MICs) were determined according to the recommendations of the Clinical and Laboratory Standards Institute (CLSI)^[27]. […] After incubation for 18 to 24 h (48 h for Enterococcus faecalis) at 37°C, the MIC was determined as the product concentration of the first well with no visual signs of bacterial growth (no disorder in the well). […] Table6. The antibacterial effects of the compounds

P. aeruginosa DSM 1117 = assay: Antibacterial test, MIC by CLSI broth dilution; format: cell-based; details: 18 to 24 h at 37°C, Mueller-Hinton
Description: as §5

S. aureus CIP 103429 = assay: Antibacterial test, MIC by CLSI broth dilution; format: cell-based; details: 18 to 24 h at 37°C, Mueller-Hinton
Description: as §5

E. faecalis CIP 103214 = assay: Antibacterial test, MIC by CLSI broth dilution; format: cell-based, Enterococcus faecalis; details: 48 h at 37°C, Mueller-Hinton
Description: as §5

SAAM 12 = assay: Antibacterial test, MIC by CLSI broth dilution; format: cell-based, Staphylococcus aureus; details: SAAM 12, clinical strain resistant to methicillin; 18 to 24 h at 37°C
Description: as §5

SAAM 27 = assay: Antibacterial test, MIC by CLSI broth dilution; format: cell-based, Staphylococcus aureus; details: SAAM 27, clinical strain resistant to methicillin; 18 to 24 h at 37°C
Description: as §5

SAAM 51 = assay: Antibacterial test, MIC by CLSI broth dilution; format: cell-based, Staphylococcus aureus; details: SAAM 51, clinical strain resistant to methicillin; 18 to 24 h at 37°C
Description: as §5

SAAM 64 = assay: Antibacterial test, MIC by CLSI broth dilution; format: cell-based, Staphylococcus aureus; details: SAAM 64, clinical strain resistant to methicillin; 18 to 24 h at 37°C
Description: as §5

SAAM 69 = assay: Antibacterial test, MIC by CLSI broth dilution; format: cell-based, Staphylococcus aureus; details: SAAM 69, clinical strain resistant to methicillin; 18 to 24 h at 37°C
Description: as §5

SAAM 86 = assay: Antibacterial test, MIC by CLSI broth dilution; format: cell-based, Staphylococcus aureus; details: SAAM 86, clinical strain resistant to methicillin; 18 to 24 h at 37°C
Description: as §5

SAAM 95 = assay: Antibacterial test, MIC by CLSI broth dilution; format: cell-based, Staphylococcus aureus; details: SAAM 95, clinical strain resistant to methicillin; 18 to 24 h at 37°C
Description: as §5

SAAM 98 = assay: Antibacterial test, MIC by CLSI broth dilution; format: cell-based, Staphylococcus aureus; details: SAAM 98, clinical strain resistant to methicillin; 18 to 24 h at 37°C
Description: as §5

CNS adenosine receptors = details: result in words, from literature; cited from earlier work
[3] = test system: Sierra Leone and Indochina P. falciparum strains; details: ratio of IC50 values against Sierra Leone and Indochina P. falciparum strains; cited from earlier work
[4] = W2 clone, chloroquine resistant, 1 parasitic cycle (45h), bracket = uncertainty in %
[5] = 3D7 clone, sensitive, 1 parasitic cycle (45h), bracket = uncertainty in %

Row | Structure (SMILES) | IC50 [1, 4] | IC50 [2, 5] | minimum inhibitory concentrations (MICs) (E. coli DSM 1103) | minimum inhibitory concentrations (MICs) (P. aeruginosa DSM 1117) | minimum inhibitory concentrations (MICs) (S. aureus CIP 103429) | minimum inhibitory concentrations (MICs) (E. faecalis CIP 103214) | minimum inhibitory concentrations (MICs) (SAAM 12) | minimum inhibitory concentrations (MICs) (SAAM 27) | minimum inhibitory concentrations (MICs) (SAAM 51) | minimum inhibitory concentrations (MICs) (SAAM 64) | minimum inhibitory concentrations (MICs) (SAAM 69) | minimum inhibitory concentrations (MICs) (SAAM 86) | minimum inhibitory concentrations (MICs) (SAAM 95) | minimum inhibitory concentrations (MICs) (SAAM 98) | binding to CNS adenosine receptors (CNS adenosine receptors) | more potent than the (-)-enantiomer by a factor [3] | IC50 ([1]; W2, 45 h) | IC50 ([2]; 3D7, 45 h)
1 | O[C@H](CNCc1ccccc1)c1cc(C(F)(F)F)nc2c(C(F)(F)F)cccc12 [Compound 1f, (S)-2-(benzylamino)-1-(2,8-bis(trifluoromethyl)quinolin-4-yl)ethanol] | 19.1 nM | 35.1 nM | >128 µg/mL | >128 µg/mL | 4 to 8 µg/mL | 8 µg/mL (≈ 19.3 µM) | 4 µg/mL (≈ 9.65 µM) | 4 µg/mL (≈ 9.65 µM) | 4 µg/mL (≈ 9.65 µM) | >128 µg/mL | 8 µg/mL (≈ 19.3 µM) | 8 µg/mL (≈ 19.3 µM) | 4 µg/mL (≈ 9.65 µM) | 8 µg/mL (≈ 19.3 µM) | – | – | – | –
2 | O[C@@H](c1cc(C(F)(F)F)nc2c(C(F)(F)F)cccc12)[C@H]1CCCCN1 (single isomer, unassigned) [(-)-enantiomer of mefloquine] | – | – | – | – | – | – | – | – | – | – | – | – | – | – | binds to CNS adenosine receptors | – | – | –
3 | O[C@@H](CNCc1ccccc1)c1cc(C(F)(F)F)nc2c(C(F)(F)F)cccc12 [Compound 1a, (R)-2-(benzylamino)-1-(2,8-bis(trifluoromethyl)quinolin-4-yl)ethanol] | 41.1 nM | 104 nM | >128 µg/mL | >128 µg/mL | >128 µg/mL | >128 µg/mL | 4 µg/mL (≈ 9.65 µM) | 4 µg/mL (≈ 9.65 µM) | 4 µg/mL (≈ 9.65 µM) | >128 µg/mL | 8 µg/mL (≈ 19.3 µM) | 8 µg/mL (≈ 19.3 µM) | 4 µg/mL (≈ 9.65 µM) | >128 µg/mL | – | – | – | –
4 | CCCCCNC[C@H](O)c1cc(C(F)(F)F)nc2c(C(F)(F)F)cccc12 [Compound 1c, (R)-1-(2,8-bis(trifluoromethyl)quinolin-4-yl)-2-(pentylamino)ethanol] | 38.2 nM | 74.7 nM | 32 µg/mL (≈ 81.1 µM) | >128 µg/mL | 16 to 32 µg/mL | 16 to 32 µg/mL | 8 µg/mL (≈ 20.3 µM) | 8 µg/mL (≈ 20.3 µM) | 8 µg/mL (≈ 20.3 µM) | 16 µg/mL (≈ 40.6 µM) | 8 µg/mL (≈ 20.3 µM) | 16 µg/mL (≈ 40.6 µM) | 8 µg/mL (≈ 20.3 µM) | 16 µg/mL (≈ 40.6 µM) | – | – | – | –
5 | CCCCCNC[C@@H](O)c1cc(C(F)(F)F)nc2c(C(F)(F)F)cccc12 [Compound 1h, (S)-1-(2,8-bis(trifluoromethyl)quinolin-4-yl)-2-(pentylamino)ethanol] | 6.98 nM | 8.33 nM | 16 µg/mL (≈ 40.6 µM) | >128 µg/mL | 16 to 32 µg/mL | 16 to 32 µg/mL | 8 µg/mL (≈ 20.3 µM) | 8 µg/mL (≈ 20.3 µM) | 8 µg/mL (≈ 20.3 µM) | 16 µg/mL (≈ 40.6 µM) | 8 µg/mL (≈ 20.3 µM) | 16 µg/mL (≈ 40.6 µM) | 8 µg/mL (≈ 20.3 µM) | 16 µg/mL (≈ 40.6 µM) | – | – | – | –
6 | CCCCCCNC[C@H](O)c1cc(C(F)(F)F)nc2c(C(F)(F)F)cccc12 [Compound 1d, (R)-1-(2,8-bis(trifluoromethyl)quinolin-4-yl)-2-(hexylamino)ethanol] | 142 nM | 205 nM | 16 µg/mL (≈ 39.2 µM) | >128 µg/mL | 4 to 8 µg/mL | 4 to 8 µg/mL | 4 µg/mL (≈ 9.79 µM) | 4 µg/mL (≈ 9.79 µM) | 4 µg/mL (≈ 9.79 µM) | 4 µg/mL (≈ 9.79 µM) | 4 µg/mL (≈ 9.79 µM) | 4 µg/mL (≈ 9.79 µM) | 4 µg/mL (≈ 9.79 µM) | 4 µg/mL (≈ 9.79 µM) | – | – | – | –
7 | O[C@H](c1cc(C(F)(F)F)nc2c(C(F)(F)F)cccc12)[C@@H]1CCCCN1 (single isomer, unassigned) [(+)-enantiomer of the mefloquine] | – | – | – | – | – | – | – | – | – | – | – | – | – | – | without significant activity | 1.69 | – | –
8 | O[C@H](c1cc(C(F)(F)F)nc2c(C(F)(F)F)cccc12)[C@@H]1CCCCN1 (relative stereo) [MQ, (±)-(R*,S*)-α-2-piperidinyl-2,8-bis(trifluoromethyl)-4-quinolinemethanol, reference compound] | 26.5 nM | 52.2 nM | 64 µg/mL (≈ 169 µM) | >128 µg/mL | 16 to 32 µg/mL | 16 to 32 µg/mL | 16 µg/mL (≈ 42.3 µM) | 16 µg/mL (≈ 42.3 µM) | 16 µg/mL (≈ 42.3 µM) | 32 µg/mL (≈ 84.6 µM) | 16 µg/mL (≈ 42.3 µM) | 16 µg/mL (≈ 42.3 µM) | 16 µg/mL (≈ 42.3 µM) | 32 µg/mL (≈ 84.6 µM) | – | – | – | –
9 | CCCCCCNC[C@@H](O)c1cc(C(F)(F)F)nc2c(C(F)(F)F)cccc12 [Compound 1i, (S)-1-(2,8-bis(trifluoromethyl)quinolin-4-yl)-2-(hexylamino)ethanol] | 9.4 nM | 14.5 nM | >128 µg/mL | >128 µg/mL | 4 to 8 µg/mL | 4 to 8 µg/mL | 2 µg/mL (≈ 4.9 µM) | 2 µg/mL (≈ 4.9 µM) | 2 µg/mL (≈ 4.9 µM) | 4 µg/mL (≈ 9.79 µM) | 4 µg/mL (≈ 9.79 µM) | 8 µg/mL (≈ 19.6 µM) | 2 µg/mL (≈ 4.9 µM) | 8 µg/mL (≈ 19.6 µM) | – | – | – | –
10 | CCN(CC)CCCC(C)Nc1ccnc2cc(Cl)ccc12 (stereo not shown) [CQ, chloroquine, reference compound] | – | – | – | – | – | – | – | – | – | – | – | – | – | – | – | – | 572 nM | 32.5 nM

Reference: patent EP2487157A1, “Enantioselective synthesis method of 4-aminoalcoholquinoline derivatives and the use” (Université de Picardie Jules Verne, priority 2011, dated 2012)
